Experimental data as given in PMC7367283, “A PIP2 substitute mediates voltage sensor-pore coupling in KCNQ activation” (Communications Biology, 2020).

Target: T1, HCN4 (Homo sapiens, UniProt Q9Y3Q4)
T1 sequence (Q9Y3Q4 1-1203): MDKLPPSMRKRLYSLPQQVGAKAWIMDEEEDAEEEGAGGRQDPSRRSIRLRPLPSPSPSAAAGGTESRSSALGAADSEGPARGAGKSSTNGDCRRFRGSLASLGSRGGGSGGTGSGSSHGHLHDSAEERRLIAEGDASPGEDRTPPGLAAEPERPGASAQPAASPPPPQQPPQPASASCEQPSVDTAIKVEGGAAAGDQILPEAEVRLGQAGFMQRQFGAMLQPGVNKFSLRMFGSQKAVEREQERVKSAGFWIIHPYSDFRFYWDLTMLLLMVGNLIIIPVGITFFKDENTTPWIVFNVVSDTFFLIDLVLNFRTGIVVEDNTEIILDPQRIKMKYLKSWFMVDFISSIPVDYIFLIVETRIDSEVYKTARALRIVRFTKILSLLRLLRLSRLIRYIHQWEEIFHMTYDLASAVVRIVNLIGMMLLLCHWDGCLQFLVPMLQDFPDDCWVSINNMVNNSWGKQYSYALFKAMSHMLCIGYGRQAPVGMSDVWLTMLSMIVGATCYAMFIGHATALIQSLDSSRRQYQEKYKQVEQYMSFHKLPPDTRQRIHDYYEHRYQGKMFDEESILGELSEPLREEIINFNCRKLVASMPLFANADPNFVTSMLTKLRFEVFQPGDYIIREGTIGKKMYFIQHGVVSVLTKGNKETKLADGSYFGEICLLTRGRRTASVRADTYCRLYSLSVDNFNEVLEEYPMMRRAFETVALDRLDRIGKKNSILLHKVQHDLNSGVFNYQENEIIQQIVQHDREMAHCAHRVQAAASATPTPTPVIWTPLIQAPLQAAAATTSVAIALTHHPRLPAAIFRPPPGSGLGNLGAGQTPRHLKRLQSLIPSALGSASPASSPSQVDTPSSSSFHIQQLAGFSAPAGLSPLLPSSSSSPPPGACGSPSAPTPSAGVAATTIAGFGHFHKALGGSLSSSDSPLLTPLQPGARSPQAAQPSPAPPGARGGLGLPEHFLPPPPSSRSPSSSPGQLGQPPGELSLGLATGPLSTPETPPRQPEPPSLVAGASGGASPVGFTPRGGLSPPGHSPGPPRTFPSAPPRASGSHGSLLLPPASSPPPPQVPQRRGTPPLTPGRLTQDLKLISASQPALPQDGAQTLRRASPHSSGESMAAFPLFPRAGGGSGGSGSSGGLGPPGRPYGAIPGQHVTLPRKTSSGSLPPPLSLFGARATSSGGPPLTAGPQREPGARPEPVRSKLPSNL
Experiment: Two-electrode voltage clamp of HCN4 in Xenopus oocytes
Type: cell-based
Conditions: 10 µM CP1
Text: Since CP1 has a similar effect to PIP2 in mediating VSD-pore coupling in KCNQ channels, we tested if CP1 has effects on other ion channels that are also sensitive to PIP2 or are voltage activated and share general structural features of the VSD and the pore with KCNQ. […] On the other hand, NaV1.5 and KV4.2 are voltage-gated ion channels.
Fig. 6 Effects of CP1 on other ion channels expressed in Xenopus oocytes. a Currents of Kir1.1, CaV1.2, NaV1.5, hERG, and KV4.2 before and after application of 10 µM CP1, respectively. The voltages for holding, test, and returning pulses were Kir1.1, 0 mV, −100 to +60 mV, 0; CaV1.2, −100 mV, −100 to +60, −100 mV; NaV1.5, −100, −120 to +40 mV, −120 mV; hERG, −80 mV, −90 to +60 mV, −60 mV; KV4.2, −80 mV, −100 mV to +80 mV, −40 mV; HCN4, −30 mV, −30 to −140 mV, −120 mV. b Current–voltage relations of Kir1.1 channel in the absence or presence of 10 µM CP1 (n = 7). c–g G–V relations of indicated channels with and without 10 µM CP1. The ΔV1/2 of G–V relations (mV) are CaV1.2, 3.38 ± 0.71 mV (c); NaV1.5, −2.26 ± 0.95 mV (d); hERG, 6.85 ± 1.81 mV (e); KV 4.2, −2.26 ± 2.88 mV (f); HCN4, 17.13 ± 1.59 mV (g).
Complementary DNA (cDNA) encoding human KCNQ1 (UniProtKB/Swiss‐Prot under accession no. P51787), KCNQ2 (O43526), KCNQ3 (O43525), KCNE1 (P15382), Kir1.1 (P48048), hERG (Q12809), KV4.2 (Q63881), NaV1.5 (Q14524), NaV β1 (Q07699), CaV1.2 (Q13936), CaV β1a (Q02641), CaV α2/δ1 (P54289), and HCN4 (Q9Y3Q4) were subcloned into oocyte expression vectors, respectively. Site-directed mutations of the KCNQ1 channel were all produced by overlap extension polymerase chain reaction (PCR) with high-fidelity Pfu polymerase (Stratagene, CA). The presence of the desired mutation was verified by sequencing the PCR-amplified regions. All the primer sequences used in this study are available in Supplementary Table 1. The complementary RNA (cRNA) of all these channels and mutations was transcribed in vitro with the T3, T7, or SP6 polymerase mMessage mMachine kit (Invitrogen, Thermo Fisher Scientific, MO).
The whole-oocyte ionic currents were recorded with a GeneClamp 500B amplifier (Axon Instruments, CA) or iTEV90 amplifier (HEKA, Germany) and then sampled at 1 kHz and low-pass-filtered at 2 kHz. The Patchmaster software (HEKA, Germany) was used to acquire data. The Kir1.1 current was recorded with a high K^+ bath solution containing (in mM) 96 KCl, 4 NaCl, 1 CaCl2, 2 MgCl2, and 10 HEPES, pH 7.3–7.4. The HCN4 current was recorded in ND66 solution containing (in mM) 66 NaCl, 32 KCl, 1.8 CaCl2, 1 MgCl2, and 5 HEPES, pH 7.6. All the other potassium channels were recorded in ND96 solution. The currents of CaV1.2 channel were recorded in 40 mM Ba^2+ bath solution containing (in mM) 40 Ba(OH)2, 50 TEA-OH, 2 KOH, and 5 HEPES, adjusted to pH 7.4 with methanesulfonic acid. CP1 (DISODIUM 5-BROMO-2-[9-CHLORO-3-(SULFONATOOXY) NAPHTHO [1,2-B] THIEN-2-YL]-1H-INDOL-3-YL SULFATE, Sigma-Aldrich, MO) and Chromanol 293B (Sigma-Aldrich, MO) were dissolved in bath solutions. All the chemicals were purchased from Sigma-Aldrich. To measure the I–V relations of the Kir1.1 channel, the test voltage was set from −100 to +60 mV for 1 s with 20-mV increments. The test pulses were stepped from a holding potential of 0 mV and then stepped back to 0 mV. The HCN4 currents were recorded by a test pulse between −30 and −140 mV in 10-mV step from a holding potential of −30 mV. For all the other potassium channels and CaV1.2 channel, the holding potential was −80 or −100 mV, and the test pulse was applied with 10-mV increment, which was followed with a repolarization pulse at −40 mV before returning to the holding potential. The durations of test and the repolarization pulse vary for different channels to allow the activation and deactivation of the channel to reach their steady states.

- ΔV1/2 of G–V relations: 17.13 ± 1.59 mV
- G/Gmax Mean (Fig. 6g) (voltage -30 mV): 0.0988
- G/Gmax Mean (Fig. 6g) (voltage -40 mV): 0.0945
- G/Gmax Mean (Fig. 6g) (voltage -50 mV): 0.1008
- G/Gmax Mean (Fig. 6g) (voltage -60 mV): 0.1162
- G/Gmax Mean (Fig. 6g) (voltage -70 mV): 0.1464
- G/Gmax Mean (Fig. 6g) (voltage -80 mV): 0.2025
- G/Gmax Mean (Fig. 6g) (voltage -90 mV): 0.2959
- G/Gmax Mean (Fig. 6g) (voltage -100 mV): 0.4355
- G/Gmax Mean (Fig. 6g) (voltage -110 mV): 0.6065
- G/Gmax Mean (Fig. 6g) (voltage -120 mV): 0.7756
- G/Gmax Mean (Fig. 6g) (voltage -130 mV): 0.9097
- G/Gmax Mean (Fig. 6g) (voltage -140 mV): 1.0000
SMILES: O=S(=O)([O-])Oc1c(-c2sc3c(ccc4cccc(Cl)c43)c2OS(=O)(=O)[O-])[nH]c2ccc(Br)cc12.[Na+].[Na+] [CP1, DISODIUM 5-BROMO-2-[9-CHLORO-3-(SULFONATOOXY) NAPHTHO [1,2-B] THIEN-2-YL]-1H-INDOL-3-YL SULFATE]
